Assay results reported in patent US20090305225A1, “Inhibition of Creatine Uptake to Promote Weight Loss” (priority 2005, published 2009).

Assays:
[1] = system: creatine transporter mRNA; experiment: In situ hybridization of creatine transporter mRNA in rat brain; type: in vivo; details: 48 hours after icv 0.4 um/kg; arcuate, dorsomedial, ventromedial, third ventricle, paraventricular thalamic, habenular areas; FIG. 6
Text: At least 3 rats per group were used for each individual probe. Brains were dissected as described above and were cut vertically to remove the anterior portion at the optic chiasm and the posterior portion at the interpeduncular fossa so that the remaining blocks included the whole hypothalamus with a small additional margin of adjacent tissue. The blocks were immediately frozen on foil on dry ice, then stored at −80 degrees C. Blocks were sectioned in a cryostat (Micron HM500O) at −20 degrees C. and at a thickness of 13 microns. The slides were fixed in 4% paraformaldehyde for 5 minutes and acetylated in 1.3% triethanolamine and 0.5% acetic anhydride, pH 8.0 for 5 minutes. […] After air drying, the slides were ready to use.
For preparation of radiolabeled riboprobes, the DNA fragments containing the creatine transporter insert and a T7 or SP6 phage promoter sequence in each side were produced from cloning vectors (pCRII-TOPO, Invitrogene; PCR-TRAP, GenHunter) either by restriction endonuclease digestion or by PCR amplification. […] The cpm value was determined by counting in a liquid scintillation spectrometer. […]
For dipping and developing in situ slides, Kodak NTB-2 emulsion was diluted (1:1) using ddH2O and warmed to 40 degrees C. in a dark room. […] Slides were observed under dark-field microscopy (Olympus, Tokyo, Japan) and silver grains in regions of interest were assessed. […]

[2] = system: creatine transporter (CrT) protein; experiment: Creatine transporter immunoreactivity in rat brain; type: in vivo; details: 4 hours after icv 0.4 um/kg; dorsomedial, supramamillary nucleus, III ventricle, habenular (p<0.05), paraventricular thalamic areas; FIG. 7
Procedure: In experiments involving immunohistochemistry, animals were injected icv with CoPP 0.4 umol/kg body weight or with vehicle. Four hours after injection, animals were anesthetized with halothane and perfused through the left ventricle of the heart, initially with oxygenated Krebs buffer and then with ˜350 ml of 4% paraformaldehyde in 0.1M NaCl, pH 7.4 phosphate buffered saline (PBS). Brains were extracted from the skull, hypothalamic blocks dissected (by coronal cuts anterior and posterior to hypothalamic landmarks) and post-fixed in 4% paraformaldehyde solution at 4 degrees C. overnight. The following day, the blocks were transferred to 30% sucrose and incubated overnight at 4 degrees C. […] They were allowed to dry, rewetted with PBS buffer and cover-slipped with Citifluor (Ted Pella, Reading, Calif.). Creatine transporter (CrT) and Fos studies were performed using indirect fluorescence visualization with rabbit anti-CrT (1:40; Alpha Diagnostics, San Antonio, Tex.) with goat anti-rabbit Cy3 (Jackson Immuno Research Laboratories, Inc., West Grove, Pa.) and rabbit c-Fos-AB5 (1:2,000; Oncogene Research Products, Cambridge, Mass.) with goat anti-rabbit Cy3 (1:500; Jackson Immuno Research Laboratories, Inc.) as the secondary antibody. […] Areas of interest were quantitated on each section in which they appeared and averaged to yield means+SEM of percentages. […]

C=Cc1c(C)c2cc3[nH]c(cc4nc(cc5nc(cc1[nH]2)C(C)=C5CCC(=O)[O-])C(CCC(=O)[O-])=C4C)c(C)c3C=C.[Co+2] [CoPP, Cobaltic protoporphyrin IX]
CrT mRNA in situ hybridization compared to control [1]: increased
immunoreactive (IR) CrT compared to controls and fasted controls [2]: increased
